For one assay, the system named is Klebsiella pneumoniae. The assay is described as follows: Antibacterial activity against Klebsiella pneumoniae NCIM 2883 assessed as growth inhibition in presence of 10 mM N-Acetylcysteine. Format: functional, organism-based.
Assay [1] deals with Pseudomonas aeruginosa. The assay is described as follows: Antibacterial activity against Pseudomonas aeruginosa NCIM 5029 in presence of 10 mM N-Acetylcysteine. Format: functional.
For assay [2], the system named is Pseudomonas aeruginosa. The assay is described as follows: Antibacterial activity against Pseudomonas aeruginosa NCIM 5029. It is filed as functional.
The subject of assay [3] is Escherichia coli. The assay is described as follows: Antibacterial activity against Escherichia coli MG1655 in presence of 10 mM N-Acetylcysteine. Format: functional.
Assay [4] has as its system Escherichia coli. The assay is described as follows: Antibacterial activity against Escherichia coli DH5alpha. Format: functional. Conditions: DH5[alpha].
Assay [5] relates to Escherichia coli. The assay is described as follows: Antibacterial activity against Escherichia coli MG1655. Format: functional.
Assay [6] deals with Klebsiella aerogenes. The assay is described as follows: Antibacterial activity against Klebsiella aerogenes NCIM 2281 in presence of 10 mM N-Acetylcysteine. Format: functional.
The subject of assay [7] is Klebsiella aerogenes. The assay is described as follows: Antibacterial activity against Klebsiella aerogenes NCIM 2281. It is filed as functional.
The test system of assay [8] is Escherichia coli. The assay is described as follows: Antibacterial activity against Escherichia coli DH5alpha in presence of 10 mM N-Acetylcysteine. Conditions: DH5[alpha]. It is filed as functional.
Assay [9] concerns Escherichia coli. The assay is described as follows: Antibacterial activity against Escherichia coli W3110. It is filed as functional. To be noted: K-12 substr. W3110.
Assay [10] deals with Escherichia coli. The assay is described as follows: Antibacterial activity against Escherichia coli W3110 in presence of 10 mM N-Acetylcysteine. It is filed as functional. Conditions: K-12 substr. W3110.

≈ marks a conversion by molar mass, not a printed value. Calls of active or inactive are those of the source.

Turning to `CC1(C)S[C@@H]2[C@H](NC(=O)[C@H](N)c3ccccc3)C(=O)N2[C@H]1C(=O)O` [AMPICILLIN], the outcome in the assay on Klebsiella pneumoniae was Active. Further, the minimum inhibitory concentration (MIC) (commonly the smallest concentration in the dilution series that meets the test's criterion for growth inhibition) with Pseudomonas aeruginosa [1] is 128 µg/mL; with Pseudomonas aeruginosa [2], 1020 µg/mL (≈ 2930 µM); with Escherichia coli [3], 1 µg/mL; against Escherichia coli [4], 4 µg/mL (≈ 11.4 µM); in the assay on Escherichia coli [5], 4 µg/mL (≈ 11.4 µM); in the assay with Klebsiella aerogenes [6], 32 µg/mL. The MIC in the assay on Klebsiella aerogenes [7] is 32 µg/mL (≈ 91.6 µM); in the assay with Escherichia coli [8] it was 4 µg/mL; against Escherichia coli [9], 8 µg/mL (≈ 22.9 µM).
With `O=C(N[C@H](CO)[C@H](O)c1ccc([N+](=O)[O-])cc1)C(Cl)Cl` [CHLORAMPHENICOL], in the assay with Klebsiella pneumoniae, the result was Active. For the same molecule, the MIC in the assay with Escherichia coli [10] is 1 µg/mL; with Pseudomonas aeruginosa [1], 128 µg/mL; with Pseudomonas aeruginosa [2], 128 µg/mL (≈ 396 µM); in the assay with Escherichia coli [3] it was 4 µg/mL; in the assay with Escherichia coli [4] it was 2 µg/mL (≈ 6.19 µM); against Escherichia coli [5] it was 4 µg/mL (≈ 12.4 µM). The MIC was 1 µg/mL in the assay on Klebsiella aerogenes [6], 1 µg/mL (≈ 3.09 µM) with Klebsiella aerogenes [7], 2 µg/mL in the assay on Escherichia coli [8] and 1 µg/mL (≈ 3.09 µM) with Escherichia coli [9].
With `O=C(O)c1cn(C2CC2)c2cc(N3CCNCC3)c(F)cc2c1=O` [CIPROFLOXACIN], in the assay on Klebsiella pneumoniae, the result was Active. The MIC in the assay with Escherichia coli [10] turned out to be 0.064 µg/mL; with Pseudomonas aeruginosa [1], 2.05 µg/mL; against Pseudomonas aeruginosa [2], 1.02 µg/mL (≈ 3.09 µM); in the assay with Escherichia coli [3] it was 0.512 µg/mL; in the assay on Klebsiella aerogenes [6] it was 0.512 µg/mL; against Klebsiella aerogenes [7], 0.016 µg/mL (≈ 0.0483 µM).
On to `CC[C@H]1OC(=O)[C@H](C)[C@@H](O[C@H]2C[C@@](C)(OC)[C@@H](O)[C@H](C)O2)[C@H](C)[C@@H](O[C@@H]2O[C@H](C)C[C@H](N(C)C)[C@H]2O)[C@](C)(O)C[C@@H](C)C(=O)[C@H](C)[C@@H](O)[C@]1(C)O` [ERYTHROMYCIN], for which the outcome in the assay on Klebsiella pneumoniae was Active. For the same molecule, the MIC with Escherichia coli [10] came out at 512 µg/mL; in the assay on Pseudomonas aeruginosa [1], 1020 µg/mL; with Pseudomonas aeruginosa [2] it was 256 µg/mL (≈ 349 µM); with Escherichia coli [3], 1020 µg/mL; against Escherichia coli [4] it was 16 µg/mL (≈ 21.8 µM); in the assay on Escherichia coli [5], 32 µg/mL (≈ 43.6 µM). Besides, the MIC in the assay on Klebsiella aerogenes [6] was determined as 1020 µg/mL; against Klebsiella aerogenes [7] it was 32 µg/mL (≈ 43.6 µM); in the assay on Escherichia coli [8] it was 16 µg/mL; in the assay on Escherichia coli [9], 4 µg/mL (≈ 5.45 µM).
With `NC[C@H]1O[C@H](O[C@H]2[C@H](O)[C@@H](O[C@H]3O[C@H](CO)[C@@H](O)[C@H](N)[C@H]3O)[C@H](N)C[C@@H]2N)[C@H](O)[C@@H](O)[C@@H]1O` [KANAMYCIN], the result in the assay on Klebsiella pneumoniae was Active. Further, the MIC in the assay with Escherichia coli [10] was 16 µg/mL; with Pseudomonas aeruginosa [1] it was 256 µg/mL; with Pseudomonas aeruginosa [2], 64 µg/mL (≈ 132 µM); in the assay on Escherichia coli [3], 32 µg/mL; in the assay with Escherichia coli [4], 0.5 µg/mL (≈ 1.03 µM); with Escherichia coli [5] it was 1 µg/mL (≈ 2.06 µM). For the same molecule, the minimal inhibitory concentration (MIC) with Klebsiella aerogenes [6] is 16 µg/mL; in the assay with Klebsiella aerogenes [7] it was 1 µg/mL (≈ 2.06 µM); in the assay with Escherichia coli [8], 0.5 µg/mL; with Escherichia coli [9] it was 1 µg/mL (≈ 2.06 µM).
For `CC1COc2c(N3CCN(C)CC3)c(F)cc3c(=O)c(C(=O)O)cn1c23` (stereo not given) [OFLOXACIN], the outcome with Klebsiella pneumoniae was Active. In addition, the MIC stood at 0.032 µg/mL in the assay with Escherichia coli [10]; 2.05 µg/mL with Pseudomonas aeruginosa [1]; 0.256 µg/mL (≈ 0.708 µM) against Pseudomonas aeruginosa [2]; 1.02 µg/mL with Escherichia coli [3]; 0.032 µg/mL (≈ 0.0886 µM) with Escherichia coli [5]; 0.512 µg/mL with Klebsiella aerogenes [6]. For the same molecule, it took 0.064 µg/mL (≈ 0.177 µM) to inhibit growth against Klebsiella aerogenes [7] (MIC).
Turning to `CC1(C)S[C@@H]2[C@H](NC(=O)Cc3ccccc3)C(=O)N2[C@H]1C(=O)O` [PENICILLIN G], in the assay with Klebsiella pneumoniae, the result was Active. Besides, the minimal inhibitory concentration (MIC) was 64 µg/mL in the assay with Escherichia coli [10]; 2050 µg/mL with Pseudomonas aeruginosa [1]; over 4100 µg/mL in the assay with Pseudomonas aeruginosa [2]; 64 µg/mL with Escherichia coli [3]; 64 µg/mL (≈ 191 µM) in the assay on Escherichia coli [5]; 64 µg/mL in the assay on Klebsiella aerogenes [6]. In addition, the MIC with Klebsiella aerogenes [7] and against Escherichia coli [9] was 64 µg/mL (≈ 191 µM) throughout.
Consider `CN[C@@H]1[C@H](O)[C@H](NC)[C@H]2O[C@@]3(O)C(=O)C[C@@H](C)O[C@H]3O[C@@H]2[C@H]1O` [SPECTINOMYCIN], for which the result in the assay on Klebsiella pneumoniae was Active. The MIC came out at 128 µg/mL with Escherichia coli [10]; 512 µg/mL in the assay with Pseudomonas aeruginosa [1]; 256 µg/mL (≈ 770 µM) in the assay with Pseudomonas aeruginosa [2]; 256 µg/mL in the assay on Escherichia coli [3]; 4 µg/mL (≈ 12 µM) with Escherichia coli [4]; 8 µg/mL (≈ 24.1 µM) in the assay on Escherichia coli [5]. The MIC with Klebsiella aerogenes [6] worked out at 128 µg/mL; in the assay with Klebsiella aerogenes [7] it was 8 µg/mL (≈ 24.1 µM); in the assay with Escherichia coli [8] it was 4 µg/mL; with Escherichia coli [9], 6 µg/mL (≈ 18.1 µM).
`CN[C@@H]1[C@H](O[C@H]2[C@H](O[C@H]3[C@H](O)[C@@H](O)[C@H](N=C(N)N)[C@@H](O)[C@@H]3N=C(N)N)O[C@@H](C)[C@]2(O)C=O)O[C@@H](CO)[C@H](O)[C@H]1O` [STREPTOMYCIN]: in the assay on Klebsiella pneumoniae, the outcome was Active. Also, the minimal inhibitory concentration (MIC) was determined as 16 µg/mL in the assay with Escherichia coli [10]; 64 µg/mL with Pseudomonas aeruginosa [1]; 8 µg/mL (≈ 13.8 µM) in the assay with Pseudomonas aeruginosa [2]; 32 µg/mL with Escherichia coli [3]; 1 µg/mL (≈ 1.72 µM) against Escherichia coli [4]; 2 µg/mL (≈ 3.44 µM) with Escherichia coli [5]. Besides, the MIC was determined as 16 µg/mL in the assay with Klebsiella aerogenes [6], 2 µg/mL (≈ 3.44 µM) in the assay on Klebsiella aerogenes [7], 1 µg/mL in the assay on Escherichia coli [8] and 2 µg/mL (≈ 3.44 µM) against Escherichia coli [9].
On to `CN(C)[C@@H]1C(O)=C(C(N)=O)C(=O)[C@@]2(O)C(O)=C3C(=O)c4c(O)cccc4[C@@](C)(O)[C@H]3C[C@@H]12` [TETRACYCLINE], for which, in the assay on Klebsiella pneumoniae, the outcome was Active. Also, the MIC with Escherichia coli [10] worked out at 0.062 µg/mL; in the assay with Pseudomonas aeruginosa [1] it was 8 µg/mL; in the assay on Pseudomonas aeruginosa [2], 8 µg/mL (≈ 18 µM); with Escherichia coli [3], 1 µg/mL; with Escherichia coli [4], 1 µg/mL (≈ 2.25 µM); with Escherichia coli [5] it was 1 µg/mL (≈ 2.25 µM). For the same molecule, the MIC in the assay on Klebsiella aerogenes [6] is 1 µg/mL; against Klebsiella aerogenes [7], 1 µg/mL (≈ 2.25 µM); in the assay on Escherichia coli [8] it was 1 µg/mL; with Escherichia coli [9], 0.062 µg/mL (≈ 0.14 µM).

For the origin of these results see ChEMBL document CHEMBL1275260, “N-acetylcysteine-mediated modulation of bacterial antibiotic susceptibility” (2010).
